Numbered stars: 1 amine (or outer) side, 2 acyl side, 3 side chain; on linkers, the order of the positions; unused ones are H or OH. Bridge positions count the residues as written; N and C are the ends. Side chains are listed from the residue outwards. Peptide text beside a SMILES is read from it. * marks the point of attachment. C20 diacid = O=C(O)CCCCCCCCCCCCCCCCCCC(=O)*; γGlu = O=C(O)[C@H](CCC(=O)[*:2])N[*:1]
Experiments:
[1] = ASSAY (III) ThT fibrillation assay for physical stability; format: physicochemical
Procedure, shortened: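 Physical stability scored by ThT fluorescence (444 nm excitation, 485 nm emission) tracked every 20 min during 37 °C incubation with 960 rpm shaking, ThT at 1 μM final. Values are replicate means with SD at chosen times; HPLC against pramlintide standard gives initial and post-assay soluble concentrations.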

[2] = biological target: T1, human amylin 3(a) receptor (human calcitonin receptor + RAMP-3) in BHK570 cells (Homo sapiens, UniProt O60896+P30988); experiment: ASSAY (II)a functional assay, human amylin receptor (CRE luciferase); format: cell-based; conditions: for EC50: human amylin receptor functional potency, assay (II), read-out: hAmylin-R funct. EC50
T1 construct: expressed in transfected cells
Procedure, shortened: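 Read-out: CRE-driven luciferase luminescence, single photon counting, after 30 min at room temperature with LucLite. BHK cells expressed calcitonin receptor alone or with RAMP-3 (amylin 3(a)). Cells were stimulated 3 h at 37° C in DMEM, 10% FBS, 10 mM Hepes, pH 7.4.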

[3] = biological target: T2, human amylin receptor (membranes from Amylin 3(a)/CRE-luc cells) (Homo sapiens, UniProt O60896+P30988); experiment: ASSAY (V) binding to the human amylin receptor (SPA, 125I-rat amylin); conditions: for IC50: Table 4, read-out: hAmylin-R bind IC50;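 on all read-outs here: competition binding of cell membranes (35 ng/µL) mixed with SPA beads in 384-well plates at 40 µL total volume, read by scintillation counting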
T2 construct: expressed in transfected cells
T2 sequence (P30988 25-474): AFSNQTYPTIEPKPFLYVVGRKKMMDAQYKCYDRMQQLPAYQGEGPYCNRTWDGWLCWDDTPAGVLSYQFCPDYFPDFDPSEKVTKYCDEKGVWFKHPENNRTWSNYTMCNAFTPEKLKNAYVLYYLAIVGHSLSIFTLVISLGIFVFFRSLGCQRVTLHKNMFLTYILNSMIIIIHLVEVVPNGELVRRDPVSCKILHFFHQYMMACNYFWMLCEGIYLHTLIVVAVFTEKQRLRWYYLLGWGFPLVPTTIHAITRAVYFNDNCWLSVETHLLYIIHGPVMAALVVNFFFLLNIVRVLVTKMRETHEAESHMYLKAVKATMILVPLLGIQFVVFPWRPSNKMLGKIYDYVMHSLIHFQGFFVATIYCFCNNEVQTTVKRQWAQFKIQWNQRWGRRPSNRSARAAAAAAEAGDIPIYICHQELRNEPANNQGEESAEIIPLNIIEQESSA
T2 sequence (O60896 24-148 partner): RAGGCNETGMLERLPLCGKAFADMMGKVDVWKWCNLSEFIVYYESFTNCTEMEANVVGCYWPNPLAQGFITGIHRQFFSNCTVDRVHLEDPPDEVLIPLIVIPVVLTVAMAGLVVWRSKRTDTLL

[4] = hCTR funct. EC50 divided by hAmylin-R funct. EC50
[5] = hCTR funct. EC50 over hAmylin-R funct. EC50
[6] = human functional selectivity: hCTR funct. EC50 / hAmylin-R funct. EC50
[7] = Table 5, selectivity, hCTR bind IC50 / hAmylin-R bind IC50
[8] = Table 7, human binding selectivity, included for comparison
[9] = hCTR funct. EC50 / hAmylin-R funct. EC50

Row | SMILES | ThT pH 4.0 lag time (h) [1] [h] | Ratio hCT/hAmylin funct. [2, 4] | Ratio hCT/hAmylin funct. [2, 5] | Ratio hCT/hAmylin funct. [2, 6] | Ratio hCT/hAmylin binding [3, 7] | Ratio hCT/hAmylin binding ([3]; Table 5a, selectivity, hCTR bind IC50 / hAmylin-R bind IC50) | Ratio hCT/hAmylin binding ([3]; Table 5b, selectivity, hCTR bind IC50 / hAmylin-R bind IC50) | Ratio hCT/hAmylin binding ([3]; Table 5c, selectivity, hCTR bind IC50 / hAmylin-R bind IC50) | Ratio hCT/hAmylin binding [3, 8] | Ratio hCT/hAmylin binding ([3]; Table 7a (preferred compounds), human binding selectivity, included for comparison) | Ratio hCT/hAmylin binding ([3]; ratio of human calcitonin receptor binding IC50 to human amylin receptor binding IC50) | Ratio hCT/hAmylin funct. [2, 9] | EC50 [2] [nM] | IC50 [3] [nM]
1 | CC[C@H](C)[C@H](NC(=O)[C@H](C)NC(=O)CNC(=O)[C@H](Cc1ccccc1)NC(=O)[C@H](CC(N)=O)NC(=O)[C@@H]1CCCN1C(=O)[C@H](CO)NC(=O)[C@H](CO)NC(=O)[C@H](Cc1c[nH]cn1)NC(=O)[C@H](CCCNC(=N)N)NC(=O)[C@H](CC(C)C)NC(=O)[C@H](Cc1ccccc1)NC(=O)[C@H](CC(=O)O)NC(=O)[C@H](C)NC(=O)[C@H](CC(C)C)NC(=O)[C@H](CCCNC(=N)N)NC(=O)[C@H](CCC(N)=O)NC(=O)[C@@H](NC(=O)[C@H](C)NC(=O)[C@@H]1CSSC[C@H](NC(=O)[C@@H](N)CCCCNC(=O)CC[C@H](NC(=O)CC[C@H](NC(=O)CCCCCCCCCCCCCCCCCCC(=O)O)C(=O)O)C(=O)O)C(=O)N[C@@H](CC(N)=O)C(=O)N[C@@H]([C@@H](C)O)C(=O)N[C@@H](C)C(=O)N[C@@H]([C@@H](C)O)C(=O)N1)[C@@H](C)O)C(=O)N1CCC[C@H]1C(=O)N[C@@H](CO)C(=O)N[C@@H](CO)C(=O)N[C@H](C(=O)N[C@@H](CC(N)=O)C(=O)N[C@H](C(=O)NCC(=O)N[C@@H](CO)C(=O)N[C@@H](CC(=O)O)C(=O)N[C@H](C(=O)N[C@@H](Cc1ccc(O)cc1)C(N)=O)[C@@H](C)O)C(C)C)[C@@H](C)O [Example 2] (H-K([γGlu-γGlu-C20 diacid])CNTATCATQRLADFLRHSSPNFGAIPSSTNVGSDTY-NH2; disulfide 2-7; N-terminus assumed) | 10 | 16.4 | 16.4 | 16.4 | 47.5 | 47.5 | 47.5 | 47.5 | 47.5 | 47.5 | 47.5 | – | – | –
2 | CC[C@H](C)[C@H](NC(=O)[C@H](C)NC(=O)CNC(=O)[C@H](Cc1ccccc1)NC(=O)[C@H](CC(N)=O)NC(=O)[C@@H]1CCCN1C(=O)[C@H](CO)NC(=O)[C@H](CO)NC(=O)[C@H](Cc1c[nH]cn1)NC(=O)[C@H](CCCNC(=N)N)NC(=O)[C@H](CC(C)C)NC(=O)[C@H](Cc1ccccc1)NC(=O)[C@H](CC(=O)O)NC(=O)[C@H](C)NC(=O)[C@H](CC(C)C)NC(=O)[C@H](CCCNC(=N)N)NC(=O)[C@H](CCC(N)=O)NC(=O)[C@@H](NC(=O)[C@H](C)NC(=O)[C@@H]1CSSC[C@H](NC(=O)[C@H](CCCCN)NC(=O)CC[C@H](NC(=O)CCCCCCCCCCCCCCCCCCC(=O)O)C(=O)O)C(=O)N[C@@H](CC(N)=O)C(=O)N[C@@H]([C@@H](C)O)C(=O)N[C@@H](C)C(=O)N[C@@H]([C@@H](C)O)C(=O)N1)[C@@H](C)O)C(=O)N1CCC[C@H]1C(=O)N[C@@H](CO)C(=O)N[C@@H](CO)C(=O)N[C@H](C(=O)N[C@@H](CC(N)=O)C(=O)N[C@H](C(=O)NCC(=O)N[C@@H](CO)C(=O)N[C@@H](CC(N)=O)C(=O)N[C@H](C(=O)N1CCC[C@H]1C(N)=O)[C@@H](C)O)C(C)C)[C@@H](C)O [Example 10] ({C20 diacid-γGlu}-KCNTATCATQRLADFLRHSSPNFGAIPSSTNVGSNTP-NH2; disulfide 2-7 (inferred)) | 45 | 1.0 | 1.0 | 1.0 | 1.2 | – | – | – | 1.2 | – | – | 1.0 | 0.072 | 0.082
3 | CC[C@H](C)[C@H](NC(=O)[C@H](C)NC(=O)CNC(=O)[C@H](Cc1ccccc1)NC(=O)[C@H](CC(N)=O)NC(=O)[C@@H]1CCCN1C(=O)[C@H](CO)NC(=O)[C@H](CO)NC(=O)[C@H](Cc1c[nH]cn1)NC(=O)[C@H](CCCNC(=N)N)NC(=O)[C@H](CC(C)C)NC(=O)[C@H](Cc1ccccc1)NC(=O)[C@H](CC(N)=O)NC(=O)[C@H](C)NC(=O)[C@H](CC(C)C)NC(=O)[C@H](CCCNC(=N)N)NC(=O)[C@H](CCC(N)=O)NC(=O)[C@@H](NC(=O)[C@H](C)NC(=O)[C@@H]1CSSC[C@H](NC(=O)[C@@H](N)CCCCNC(=O)COCCOCCNC(=O)CC[C@H](NC(=O)CCCCCCCCCCCCCCCCCCC(=O)O)C(=O)O)C(=O)N[C@@H](CC(N)=O)C(=O)N[C@@H]([C@@H](C)O)C(=O)N[C@@H](C)C(=O)N[C@@H]([C@@H](C)O)C(=O)N1)[C@@H](C)O)C(=O)N1CCC[C@H]1C(=O)N[C@@H](CO)C(=O)N[C@@H](CO)C(=O)N[C@H](C(=O)N[C@@H](CC(N)=O)C(=O)N[C@H](C(=O)NCC(=O)N[C@@H](CO)C(=O)N[C@@H](CCCNC(=N)N)C(=O)N[C@H](C(=O)N[C@@H](Cc1ccc(O)cc1)C(N)=O)[C@@H](C)O)C(C)C)[C@@H](C)O [Example 38] | 27 | – | – | – | – | – | – | – | – | – | – | – | – | –

Next, values leading:

Row | ThT pH 4.0 lag time (h) [1] [h] | Ratio hCT/hAmylin funct. [2, 4] | Ratio hCT/hAmylin funct. [2, 5] | Ratio hCT/hAmylin funct. [2, 6] | Ratio hCT/hAmylin binding [3, 7] | Ratio hCT/hAmylin binding ([3]; Table 5a, selectivity, hCTR bind IC50 / hAmylin-R bind IC50) | Ratio hCT/hAmylin binding ([3]; Table 5b, selectivity, hCTR bind IC50 / hAmylin-R bind IC50) | Ratio hCT/hAmylin binding ([3]; Table 5c, selectivity, hCTR bind IC50 / hAmylin-R bind IC50) | Ratio hCT/hAmylin binding [3, 8] | Ratio hCT/hAmylin binding ([3]; Table 7a (preferred compounds), human binding selectivity, included for comparison) | Ratio hCT/hAmylin binding ([3]; ratio of human calcitonin receptor binding IC50 to human amylin receptor binding IC50) | Ratio hCT/hAmylin funct. [2, 9] | EC50 [2] [nM] | IC50 [3] [nM] | SMILES
4 | 45 | 1.1 | 1.1 | 1.1 | 0.5 | – | – | – | 0.5 | – | – | 1.1 | 0.082 | 0.072 | CC[C@H](C)[C@H](NC(=O)[C@H](C)NC(=O)CNC(=O)[C@H](Cc1ccccc1)NC(=O)[C@H](CC(N)=O)NC(=O)[C@@H]1CCCN1C(=O)[C@H](CO)NC(=O)[C@H](CO)NC(=O)[C@H](Cc1c[nH]cn1)NC(=O)[C@H](CCCNC(=N)N)NC(=O)[C@H](CC(C)C)NC(=O)[C@H](Cc1ccccc1)NC(=O)[C@H](CCC(=O)O)NC(=O)[C@H](C)NC(=O)[C@H](CC(C)C)NC(=O)[C@H](CCCNC(=N)N)NC(=O)[C@H](CCC(N)=O)NC(=O)[C@@H](NC(=O)[C@H](C)NC(=O)[C@@H]1CSSC[C@H](NC(=O)[C@H](CCCCN)NC(=O)CC[C@H](NC(=O)CCCCCCCCCCCCCCCCCCC(=O)O)C(=O)O)C(=O)N[C@@H](CC(N)=O)C(=O)N[C@@H]([C@@H](C)O)C(=O)N[C@@H](C)C(=O)N[C@@H]([C@@H](C)O)C(=O)N1)[C@@H](C)O)C(=O)N1CCC[C@H]1C(=O)N[C@@H](CO)C(=O)N[C@@H](CO)C(=O)N[C@H](C(=O)N[C@@H](CC(N)=O)C(=O)N[C@H](C(=O)NCC(=O)N[C@@H](CO)C(=O)N[C@@H](CC(N)=O)C(=O)N[C@H](C(=O)N1CCC[C@H]1C(N)=O)[C@@H](C)O)C(C)C)[C@@H](C)O [Example 8] ({C20 diacid-γGlu}-KCNTATCATQRLAEFLRHSSPNFGAIPSSTNVGSNTP-NH2; disulfide 2-7)
5 | 45 | 0.9 | 0.9 | 0.9 | 1.0 | – | – | – | 1.0 | – | – | 0.9 | 0.12 | 0.105 | CC[C@H](C)[C@H](NC(=O)[C@H](C)NC(=O)CNC(=O)[C@H](Cc1ccccc1)NC(=O)[C@H](CC(N)=O)NC(=O)[C@@H]1CCCN1C(=O)[C@H](CO)NC(=O)[C@H](CO)NC(=O)[C@H](Cc1c[nH]cn1)NC(=O)[C@H](CCCNC(=N)N)NC(=O)[C@H](CC(C)C)NC(=O)[C@H](Cc1ccccc1)NC(=O)[C@H](CCC(=O)O)NC(=O)[C@H](C)NC(=O)[C@H](CC(C)C)NC(=O)[C@H](CCCNC(=N)N)NC(=O)[C@H](CCC(N)=O)NC(=O)[C@@H](NC(=O)[C@H](C)NC(=O)[C@@H]1CSSC[C@H](NC(=O)[C@H](CCCCN)NC(=O)CC[C@H](NC(=O)CCCCCCCCCCCCCCCCCCC(=O)O)C(=O)O)C(=O)N[C@@H](CC(N)=O)C(=O)N[C@@H]([C@@H](C)O)C(=O)N[C@@H](C)C(=O)N[C@@H]([C@@H](C)O)C(=O)N1)[C@@H](C)O)C(=O)N1CCC[C@H]1C(=O)N[C@@H](CO)C(=O)N[C@@H](CO)C(=O)N[C@H](C(=O)N[C@@H](CC(N)=O)C(=O)N[C@H](C(=O)NCC(=O)N[C@@H](CO)C(=O)N[C@@H](CC(=O)O)C(=O)N[C@H](C(=O)N1CCC[C@H]1C(N)=O)[C@@H](C)O)C(C)C)[C@@H](C)O [Example 11] ({C20 diacid-γGlu}-KCNTATCATQRLAEFLRHSSPNFGAIPSSTNVGSDTP-NH2; disulfide 2-7 (inferred))
